PMC6918103 (Advanced Science, 2019)
Several values for one entry are separate records, joined by “and”; a condition that tells them apart may be missing. Equal entries are not always repeated.

Legend:
[1] = Hepatic and renal function analysis; assay type: in vivo, female BALB/c mice; conditions: mice after treatment
Description: Gastrointestinal toxicity evaluation
Nine female BALB/c mice were divided into four groups (n=3 each group) and were […]
saline (control) every day. Five days later, the mice were sacrificed and their blood was obtained for hepatic and renal function analysis. The stomach, duodenum, jejunum and ileum were taken and fixed in 4% paraformaldehyde solution for hematoxylin and eosin (H&E) staining. The histological sections were imaged using an optical microscope.
Student's t-test was used to determine significant differences between the two groups.
When p<0.05, there was a significant difference, and very significant differences between two groups were defined as p<0.01.

[2] = Simulated intestinal digestion in bile-pancreatic juice (TG prodrug remaining, MG prodrug generated); assay type: in vitro ADME, rat
Description: (§1) Simulated intestinal digestion
(§2) Bile-pancreatic juice was obtained from the common bile duct of anesthetized rats, which contained bile as well as pancreatic juice as previously described. Then, 20 µL of emulsion was incubated with 180 µL bile-pancreatic juice at 37°C with gentle shaking to simulate intestinal digestion. Samples (20 µL) of the incubation solution were taken at regular intervals (0, 0.08, 0.25, 0.5, 1, 2, 3 h) and added to 180 µL of ACN to analyze the concentration of the TG prodrugs and the monoglyceride derivatives of DTX (MG prodrugs) by HPLC. The solubility of prodrugs in aqueous phase were also determined. […] 20 µL of aqueous phase were collected and the concentration of the TG prodrugs and MG prodrugs were determined as above. The fraction of TG-like prodrugs and MG-like prodrugs partitioning in mix micelle phase (aqueous phase) relative to those in raw digesta were calculated to evaluate the solubility of the prodrugs. At the same time, the particle sizes of mix micelles were measured by Malvern laser particle size analyzer. […]
(§3) In order to study the stability of linkers in circulation, TG prodrugs were incubated with rat plasma supplemented with lipoprotein lipase (LPL, 10000 IU/mL) in which TG prodrugs can be hydrolyzed into MG prodrugs rapidly. […] The concentration of TG, MG prodrugs and free DTX were determined by HPLC. […]

[3] = Partition into mixed micellar phase and mixed micelle size after 3 h digestion; assay type: in vitro ADME; conditions: Sprague-Dawley, rat
Description: as §1, §2, §3

[4] = Stability of prodrugs in rat plasma supplemented with lipoprotein lipase; assay type: in vitro ADME; conditions: 12 h
[5] = In situ recirculating intestinal perfusion (absorption rate Ka, with or without orlistat); conditions: rats
[6] = tested on: 4T1 cells; test: MTT cytotoxicity in 4T1 cells; assay type: cell-based
[7] = tested on: KB cells; test: MTT cytotoxicity in KB cells; assay type: cell-based
Description: 4T1 cells were cultured in RPMI 1640 medium with 10% FBS and KB cells were
cultured in high glucose DMEM medium with 10% FBS. All cells were maintained in a humidified atmosphere of 5% CO 2 at 37 °C. All the cell culture plastic product were obtained from Wuxi NEST Biotechnology Co., Ltd.
In vitro cytotoxicity and drug release in tumor cell
investigated in 4T1, KB and L02 cells. In brief, cells were added to 96-wells at a density of 5000 cells per well and cultured for 24 h and then the medium was discarded.
cells were incubated with different concentrations of DTX solution or prodrug
emulsions for 48 h or 72 h and cell viability was determined by MTT assay. The cells without any treatment were utilized as control (n=3 for each group).

[8] = tested on: 4T1 xenograft tumors; test: In vivo antitumor effect (tumor volume, tumor burden, body weight, H&E of organs); set-up: species or system female BALB/c mice; conditions: 4T1 tumor bearing mice; po, 20 mg kg^−1 equivalent to DTX, every alternate day for 10 days
Description: F௥௘௟ = AUCா௠௨௟௦௜௢௡ ∙Doseௌ௢௟/AUCௌ௢௟/Doseா௠௨௟௦௜௢௡
Fab = AUCp.o. ∙ Dosei.v./AUCi.v./Dosep.o.
Absorption mechanism and biodistribution of TG-mimetic prodrug
The PPa-S-S-TG was synthesized as scheme S2, the PPa-S-S-TG emulsion and its simulated intestinal digestion were implemented in accordance with the step of the TG-like DTX prodrug emulsion. Its reduction-responsibility was verified by incubation PBS with or without DTT. In brief, phosphate buffer solution (pH 7.4) (containing 30% ethanol (v/v)) with or without dithiothreitol (DTT) was used as the release media. The concentration of DTT was fixed at 10 mM. Then, 200 µL of the emulsions (PPa-S-S-TG) was incubated with 20 mL release media (reduction-sensitive or reduction-insensitive) at 37°C. At 0, 3, 12 h, 40 µL samples were taken and added to 160 µL of ACN for analysis. The content change of the PPa-S-S-TG was monitored by HPLC.
The PPa-S-S-TG and the PPa solution (10 mg/kg equivalent to PPa) were administrated to female BALB/c mice bearing the 4T1 cell line. At scheduled times the mice were sacrificed and the GITs, MLNs and tumors were taken out for fluorescence imaging by the Caliper IVIS ® Spectrum in vivo Imaging System. The intestinal tissue of PPa-S-S-TG group was then washed, fixed with 4% paraformaldehyde for 2 h, and dehydrated in 30% sucrose overnight. […]
was used as a control. […] Body weight and tumor volume were recorded every day. […]

| BUN ([1]; AVERAGE of 3 animals) | CR ([1]; AVERAGE of 3 animals) | Structure (SMILES) | ALT ([1]; AVERAGE of 3 animals) | AST ([1]; AVERAGE of 3 animals) | ALT ([1]; individual animal) | AST ([1]; individual animal) | BUN ([1]; individual animal) | CR ([1]; individual animal) | Intestinal digestion (rate) in bile-pancreatic juice [2] | Amount of MG derivative generated ([2]; Sprague-Dawley, rat, 3 h) | Partition of TG-like prodrug into the micellar phase [3] | DTX released [4] | Ka, fold increase in comparison with the DTX solution [5] | Cytotoxicity (IC50 values) ([6]; 48 h) | Cytotoxicity (IC50 values) ([6]; 72 h) | Cytotoxicity (IC50 values) ([7]; 48 h) | Cytotoxicity (IC50 values) ([7]; 72 h) | Tumor inhibition [8] |
| --- | --- | --- | --- | --- | --- | --- | --- | --- | --- | --- | --- | --- | --- | --- | --- | --- | --- | --- |
| 8.409 mmol/L | 62.3087 µmol/L | CC(=O)O[C@@]12CO[C@@H]1C[C@H](O)[C@@]1(C)C(=O)[C@H](O)C3=C(C)[C@@H](OC(=O)[C@H](O)[C@@H](NC(=O)OC(C)(C)C)c4ccccc4)C[C@@](O)([C@@H](OC(=O)c4ccccc4)[C@H]21)C3(C)C [DTX i.g.] | 41.6037 U/L | 150.819 U/L | 57.9809 U/L and 28.6275 U/L and 38.2028 U/L | 129.269 U/L and 163.103 U/L and 160.084 U/L | 8.8262 mmol/L and 7.2013 mmol/L and 9.1982 mmol/L | 51.2097 µmol/L and 66.2585 µmol/L and 69.4579 µmol/L | – | – | – | – | – | – | – | – | – | – |
| – | – | CCCCCCCCCCCCCCCC(=O)OCC(COC(=O)CCCCCCCCCCCCCCC)OC(=O)C(CCC(=O)O[C@@H](C(=O)O[C@H]1C[C@@]2(O)[C@@H](OC(=O)c3ccccc3)[C@@H]3[C@]4(OC(C)=O)CO[C@@H]4C[C@H](O)[C@@]3(C)C(=O)[C@H](O)C(=C1C)C2(C)C)[C@@H](NC(=O)OC(C)(C)C)c1ccccc1)OC(=O)C(C)(C)C (stereo partly shown) [DTX‐5C(Piv)‐TG] | – | – | – | – | – | – | poorest intestinal digestion rate | 74% | about 40.2% | 10% | 1.15 fold | – | – | – | – | – |
| – | – | CCCCCCCCCCCCCCCC(=O)OCC(COC(=O)CCCCCCCCCCCCCCC)OC(=O)CCCC(=O)O[C@@H](C(=O)O[C@H]1C[C@@]2(O)[C@@H](OC(=O)c3ccccc3)[C@@H]3[C@]4(OC(C)=O)CO[C@@H]4C[C@H](O)[C@@]3(C)C(=O)[C@H](O)C(=C1C)C2(C)C)[C@@H](NC(=O)OC(C)(C)C)c1ccccc1 [DTX‐5C‐TG] | – | – | – | – | – | – | – | – | – | – | 1.91 fold | 0.3571 µg/mL | 0.1569 µg/mL | 0.2265 µg/mL | 0.0882 µg/mL | effective tumor inhibition |
